Experimental data taken from patent publication US9090701B2, “Methods of detecting oxidized calcium/calmodulin dependent protein kinase II” (University of Iowa Research Foundation, priority 2008, dated 2015).

Columns and labels:
oxidized CaMKII = assay: Oxidized / phosphorylated CaMKII in hearts of treated mice (immunostaining, immunoblot); assay type: in vivo
Method: Mice were anesthetized with ketamine (87.5 mg/kg) and xylazine (12.5 mg/kg), and a small incision was made in the skin near the spine, approximately 1 cm above the hip. Minipumps containing saline or AngII (3 mg/kg/day) were inserted and the skin was sutured closed. Other mice were given, daily injections of Iso (30 mg/kg/day, intraperitoneal) for 7 days. Animals were then sacrificed and the heart was removed, fixed, and embedded in paraffin. Transverse heart sections of 5 μm thickness were made. To confirm the identity of cardiomyocytes, heart sections were immunolabeled with alpha-actinin Ig (cardiomyocyte-specific marker). Only sections with >90% cardiomyocytes were used in experiments. (See FIG. 13.) Paraffin was removed, and TUNEL staining was performed using In Situ cell death detection kits, TMR Red (Roche). Nuclei were co-stained with DAPI. To determine percent of TUNEL positive nuclei, whole heart sections were divided into four quadrants and one image was taken at random within each quadrant. In the case of sections from post-MI mice, an average of 50% of the heart quadrants were from portions of the heart adjacent to the MI. An investigator blinded to the identity and treatment of the mice counted the number of total and TUNEL positive cells in each image.
Other sections were treated with either a general CaMKII antibody or oxidized CaMKII antiserum. Nuclei were co-stained with DAPI. Identity of cardiomyocytes was confirmed by co-stain with an antibody against α-actinin. Images were quantified for relative staining intensity using Image J (NIH, USA). Each image was divided into four quadrants, and one rectangular area of equal size and shape was randomly placed within the cytosolic area of each quadrant, excluding DAPI-stained nuclei. Relative intensity of an image was judged to be the mean of the intensity measurements taken in each quadrant. Both the investigators and technical personnel assigned to immunostaining and quantification were blinded to the genetic identity and treatment of the mice in all studies.
To determine the role of CaMKII oxidation In apoptosis, mice were treated with saline, AngII, or isoproterenol (Iso) for one week, and transverse heart, sections from these mice were probed for the production of oxidized CaMKII in vivo. […] Total CaMKII immunoreactivity remained constant regardless of treatment. […] (See FIG. 6).
Homogenized hearts from mice treated with saline, AngII, or Iso, and whole heart lysates were analyzed by immunoblot for oxidized CaMKII.
Methionine oxidation is specifically reversed by MsrA (Weissbach e.g., 2002), so it was hypothesized that MsrA^−/− mice would show enhanced vulnerability to AngII-mediated CaMKII oxidation and apoptosis. In order to test this idea, MsrA^−/− and WT control mice were implanted with AngII or saline elating osmotic mini pumps. […] In order to test if CaMKII oxidation and apoptosis were regulated by NADPH oxidase and MsrA in the setting of myocardial infarction, MsrA^−/−, p47^−/−, and WT mice were subjected to myocardial infarction surgery. […] Myocardial infarction surgery was performed on a larger cohort of MsrA^−/− and WT control mice to determine if increased CaMKII oxidation and apoptosis in MsrA^−/− mice translated into poorer functional outcomes.
To test the specificity of this antiserum, Western blots of isolated CaMKII after no treatment, oxidation with H2O2, or phosphorylation with ATP were performed. CaMKII samples were probed for either total protein using a general CaMKII antibody or for oxidized CaMKII with anti-oxCaMKII antiserum. […] (See FIG. 14A). To test the efficacy of the antiserum in tissue staining, mice were treated with either saline or angiotensin II, an oxidant stimulating agent in cardiac tissue, and stained heart sections and performed immunofluorescent stains for oxidized CaMKII. […] (See FIG. 14B).

cardiomyocytes = assay: Intracellular calcium concentration (Fura-2 imaging); assay type: cell-based, mouse; details: compared to Iso, cardiomyocytes from WT and p47−/− mice, 100 nM
Method: Intracellular calcium concentration was assessed by Fura-2 fluorescence ratio imaging using a microscopic digital imaging system (Photon Technology International), as described previously (Sharma e.g., 1995). Briefly, cultured primary cardiac myocytes were loaded with the Ca^2+-specific dye Fura-2 by incubating with 1 μM Fura-2AM (Molecular Probes) at 37° C. for 30 minutes. [Ca^2+]t values over the entire cell were calculated from the 340/380-nm ratio images of Fura-2 fluorescence captured before, during and after Iso (100 nM) or AngII (100 nM) stimulation.
In order to validate the connection between AngII and ROS in this experimental model, isolated cardiomyocytes from WT and p47^−/− mice were treated with 100 nM AngII and monitored production of ROS by Imaging DHE, a fluorescent reporter for superoxide and hydrogen peroxide (FIG. 7C). Wild-type cardiomyocytes were incubated with fura-2 AM, a cell-permeant calcium indicator to observe changes in intracellular Ca^2+ ([Ca^2+]i).

oxCaMKII = assay: Western blot of blood samples for oxidized CaMKII; assay type: in vivo, mice; details: WT and MsrA−/− mice, sacrificed 6 hours later, N=1 per group
Text: In order to test whether the anti-oxCaMKII antiserum was suitable for detecting increased CaMKII oxidation in blood under disease conditions associated with enhanced oxidative stress, validated mouse models were utilized. […] (See FIG. 15). Western blot of blood samples and ImageJ analysis were used to quantify total and oxidized CaMKII. (See FIG. 15). […] Mice were exposed to cancer cells and treated with either saline or 2DG. Those mice that tailed to develop tumors after 60 days were labeled as controls. (See FIG. 16). Western blot of blood samples and ImageJ analysis were used to quantify total and oxidized CaMKII. (See FIG. 16). […] (See FIG. 16). Mice were divided into four groups based on the presence or absence of cancer and whether or not they received treatment. Western blot of blood samples and ImageJ analysis were used to quantify total and oxidized CaMKII. (See FIG. 18). Both cancer and varied treatments increase blood oxCaMKII in an additive manner.

With “angiotensin II (DRVYIHPF; Angiotensin-2; UniProt P01019 25-32, looked up) [AngII, oxidant stimulating agent in cardiac tissue]” the “CaMKII oxidation in hearts” value (oxidized CaMKII; MsrA−/− mice, vs saline MsrA−/− and control hearts) was “significantly more CaMKII oxidation”, the “Oxidized CaMKII in heart sections” value (oxidized CaMKII; WT mice) was “more oxidized CaMKII than those treated with saline or Iso” and the “Staining for T287-phosphorylated CaMKII in heart sections” value (oxidized CaMKII; WT mice, AngII 3 mg/kg/day 1 week) was “increased staining”. For the same substance, the “Oxidized CaMKII in heart sections” value (oxidized CaMKII; WT mice, listed as angiotensin II) was “significant staining relative to the control”, the “Oxidized CaMKII in heart sections” value (oxidized CaMKII; p47−/− mice) was “did not show increased levels of oxidized CaMKII” and the “Staining for T287-phosphorylated CaMKII in heart sections” value (oxidized CaMKII; p47−/− mice) was “unaffected”. For the same substance, the “Oxidized CaMKII in whole heart lysates (immunoblot)” value (oxidized CaMKII; vs saline or Iso) was “significantly increased oxidized CaMKII levels”, the “Increases in [Ca2+]i” value (cardiomyocytes) was “significantly less” and the “Oxidized CaMKII in blood” value (oxCaMKII) was “increased oxidized CaMKII”.
